Patent US6090958A, “Compounds and compositions for delivering active agents” (Emisphere Technologies, Inc., priority 1997, dated 2000)

Conditions: rat, in vivo, 50 mg/kg
Protocol: An intracolonic dosing composition containing 50 mg/kg of carrier 9 and 250 μg/kg of interferon in 50% propylene glycol was prepared. Rats were administered the dosing composition by intracolonic instillation.
Rats were administered, orally and by intracolonic instillation, dosing solutions of 1 mg/kg of interferon and no carrier.

With `O=C(O)CCCc1ccc(NC(=O)COc2ccccc2)cc1` [Compound 9] the “Mean peak serum interferon concentration” value was 2611±695.
